US20260217768A1, “NANOPARTICLE-NHE3 PEPTIDE TO TREAT DIARRHEA” (The Johns Hopkins University, priority 2023, published 2026)
pEC50: −log10 of the molar value. “Also recorded” adds a separate entry of the source. Where two headings read alike, the source gives them in different places.

Columns and labels:
mouse ileal loops [1] = assay: Basal fluid absorption in closed mouse ileal loops, nanoparticle-conjugated peptides, with or without Tenapanor; format: in vivo
Protocol: (§1) All in vivo studies were performed on 8-12 week old C57B1/6N mice anesthetized with isofluorane and kept at 37° C. via heating lamps and rectal thermal probes.
(§2) Effect on basal fluid transport and effect of Tenapanor. Mice operated on as above had 3-4 cm closed ileal loops inoculated with 150-μL PBS containing 400-nM nanoparticle-CP-2 or -N3SP-1Δ7. After 4 h, the loops were drained and inoculated with 150-μL PBS. 30 min later, the animals were sacrificed and loop weight/length determined. In parallel studies, Tenapanor (10 μM) was present in both incubation periods. Similar to the BODIPY-conjugated peptide studies, the effects of nanoparticle-CP-2 or N3SP-1Δ7 (4 μM) compared to PBS alone were determined on net fluid secretion produced by inoculation of 0.1-μg CTx. The nanoparticle-peptides plus 0.1-μg CTx in 150-μL PBS were inoculated in 3-4 cm long closed ileal loops. Additional controls included loops exposed only to 150-μL PBS and those only exposed to the CTx/PBS. 4 h later, the animals were sacrificed and loop weight/cm length was determined.

mouse jejunum [2] = assay: Basal net water transport, in vivo perfusion of mouse jejunal loops
NHE3 [3] = assay: NHE3 activity in polarized Caco-2/BBe/HA3-NHE3 cells (BCECF); format: cell-based; settings: for pEC50: Hill equation
[4] = test system: CTx-induced electrogenic anion secretion; assay: Short-circuit current (Isc) of CTx-treated mouse jejunal loops, Ussing chamber/voltage clamp; settings: for Isc in CTx treated loops compared to CTx in PBS: 400 nM peptide with 1-μg CTx for 6 h, no further secretagogue; for peak increases in Isc with sequential addition of FSK and carbachol: CTx exposed loops, 10-μM FSK then 10-μM CCH serosal, CP-1 vs N3SP-1
mouse jejunum [5] = assay: Anti-CD3 monoclonal antibody-induced (TNFα-mediated inflammation) fluid secretion, mouse jejunal loops; format: in vivo
NHE3 [6] = assay: NHE3 activity in PS120/HA3-NHE3/NHERF2 cells (BCECF); format: cell-based, rabbit
mouse jejunum [7] = settings: in vivo
mouse jejunum [8] = settings: in vivo; remark: listed apart in the source
mouse ileal loops [9] = assay: CTx-induced fluid secretion in closed mouse ileal loops, nanoparticle-conjugated peptides; format: in vivo; settings: nanoparticle-peptide 4 μM with 0.1-μg CTx, 4 hours
Protocol: as §1, §2

[10] = Nanoparticle characterization: hydrodynamic diameter, zeta potential, stability; format: physicochemical; settings: CR5 with peptide, 30:1 polymer:peptide weight ratio
Protocol: (§3) PBAE polymer and peptide were separately dissolved in pH 7.4 150-mM PBS and combined at a 1:1 volume ratio. Final concentrations of the components were 6-ng/μL peptide and 180-ng/μL polymer (30:1 polymer: peptide weight ratio). Polymer and peptide nanoparticles were allowed to self-assemble at room temperature for 10 minutes. For characterization, nanoparticles were diluted 1:5 in PBS. Hydrodynamic diameter and zeta potential were measured using a Malvern Zetasizer Pro (Malvern Panalytical, Malvern, UK). Stability was assessed by incubating nanoparticles at RT up to 45 minutes then measuring hydrodynamic diameter over 45 minutes. Nanoparticles were made immediately prior to each experiment.

adenylate cyclase-cAMP = assay: cAMP assay in human enteroid monolayers exposed to FSK; format: cell-based; settings: nanoparticles with 250-nM peptide, FSK (10 μM) 45 min, CP-2 vs N3SP-1Δ7
Protocol: Human jejunal enteroid monolayers on Transwell inserts (Corning Cat #: 3470) were differentiated for 5 days and then in serum-free media were exposed apically to nanoparticles containing either 250-nM CP-2 or N3SP-1Δ7. The peptide and polymer in PBS were prepared just before use, allowed to combine for 10 min before being added to the apical surface of enteroid monolayers at room temperature. Monolayers were incubated for 4 hours at 37° C., 5% CO2 incubator before the nanoparticles were removed, then monolayers were washed 3 times with cold PBS and changed to differentiation media and moved to a 37° C. incubator. Differentiation media was removed 24 hours later and washed twice with CMGF-media (Advanced DMEM/F12 with 10-mM Hepes, 10-mM GlutaMax, and 1000 Units/mL Penn/Strep). Next, 100 μL of CMGF-media containing 10-mM Theophylline, 50-μM Cilostazol and 50-μM Rolipram was added to the apical and basolateral surfaces followed by exposure to FSK (10 μM) at 37° C., 5% CO2, for 45 min before apical and basolateral media were collected and cells were lysed in 200-μL 0.1 M HCl for cAMP analysis. CAMP in apical, basolateral, and cells was determined using nonradioactive, CAMP-ELISA kits from ENZO Life Sciences (Loerrach, German), using the acetylation protocol in which the yellow-colored product is inversely proportional to the amount of CAMP present in the sample.

NHE3 [11] = assay: NHE3 activity in differentiated human enteroid monolayers after nanoparticle delivery of peptide; format: cell-based; settings: nanoparticles (250 nM) 18 h, FSK exposure, n=4
Protocol: (§4) NHE3 activity in PS120, Caco-2/BBe cells and human jejunal enteroids was determined fluorometrically (Photon Technologies Incorporated) using the intracellular pH sensitive dye BCECF, as reported (Levine et al., 1993; Sarker et al., 2008; Foulke-Abel et al., 2020). PS120/HA3-NHE3 cells were seeded on glass cover slips and studied at 70-80% confluency. Caco-2/BBe/HA3-NHE3 cells were grown to confluency on Transwell inserts (polyester, 0.4-μm pore size) and studied approximately 14-16 days pod. Human duodenal enteroid monolayers on Transwell inserts were differentiated for 5 days in the absence of Wnt3a, R-spondin, and noggin as described (Noel et al., 2017; Staab et al., 2020).
(§5) Rates of Na^+/H^+ exchange were determined as Na^+-dependent alkalinization in the presence of 50-μM HOE-694 (to inhibit all other plasma membrane NHE isoforms) in HCO3-free solutions, with internal calibration using the nigericin/K+ method, as previously described (Sarker et al., 2008; Foulke-Abel et al., 2020). Kinetic analysis was used for PS120 cell studies (expressed as Vmax) and initial rates (ΔpH/min) for Caco-2/BBe cells, mouse intestine in vitro, and human enteroids. For in vitro mouse jejunal transport studies, NHE3 activity (in the presence of 50-μM HOE-694) was measured using SNARF-4F at 37° C. in a perfusion chamber using a two-photon microscope (Olympus FV1000) and 25× objective, as described (Murtazina et al., 2011).
as §3, with “Nanoparticles were made immediately prior to each experiment.” left out

NHE3 [12] = assay: Effect of N-terminal truncations of N3SP-1 on NHE3 activity in human enteroids (BCECF-fluorometry); format: cell-based; settings: human duodenal enteroids, Hill equation; for Stimulation of NHE3 Activity: basal NHE3 activity, BCECF-fluorometry; for pEC50: stimulation of basal NHE3 activity
Protocol: as §4, §5
Concentration dependent effects on NHE3 basal activity was determined using BCECF-fluorometry. Kinetic analysis was determined of extent of stimulation of basal NHE3 activity; analysis was by use of the Hill equation.
Given the ability of N3SP-1Δ7 to prevent CTx-induced fluid secretion in vivo (FIG. 3E) and to stimulate basal NHE3 activity and prevent cAMP inhibition in human enteroids (FIG. 4C), further studies were carried out with human enteroids to determine the shortest N3SP-1-related peptide that would stimulate human NHE3. A series of N3SP-1 N-terminal truncations was synthesized and concentration-dependent stimulation of NHE3 activity determined using human jejunal enteroids.

NHE3 [13] = assay: NHE3 stimulation, summary statement over models and delivery systems; format: cell-based; settings: using either delivery system (maleimide or nanoparticles); read-out: EC50 for stimulation of basal and second messenger inhibited NHE3
NHE3 [14] = assay: NHE3 activity in mouse jejunum in vitro (two-photon microscope/SNARF-4F); format: cell-based

## CN1Cc2c(Cl)cc(Cl)cc2[C@H](c2cccc(S(=O)(=O)NCCOCCOCCNC(=O)NCCCCNC(=O)NCCOCCOCCNS(=O)(=O)c3cccc([C@@H]4CN(C)Cc5c(Cl)cc(Cl)cc54)c3)c2)C1 [Tenapanor, reference compound]
Mouse ileal loops [1]; pretreatment with 10-μM Tenapanor
  effect on N3SP-1Δ7 increased baseline fluid absorption: prevented

## CP-1: 21 aa control peptide representing aa 585-605 of rabbit NHE3 (YLLRESASAVCLDMQSLEQRR; UniProt P26432 585-605, looked up, fragment)
Mouse jejunum [2]; mouse, in vivo
  jejunal net water transport: 4.2 µL/min/cm
NHE3 [3]
  EGF stimulation of NHE3 activity in presence of peptide: 38%
[4]
  Isc in CTx treated loops compared to CTx in PBS: slightly, but not significantly, greater
  peak increases in Isc with sequential addition of FSK and carbachol: not different
Mouse jejunum [5]; mouse, in vivo, ip
  effect on anti-CD3 antibody-induced luminal fluid accumulation: increased luminal fluid accumulation
NHE3 [6]
  effect on basal NHE3 activity compared to BODIPY alone: no significant effect
  effect on basal NHE3 activity in the absence of BODIPY conjugation: Neither CP-1 nor N3SP-1 altered basal NHE3 activity
Mouse jejunum [7]
  effect on STa-induced intestinal fluid accumulation: not observed
Mouse jejunum [8]
  effect on CTx-stimulated net fluid secretion (loop weight/cm): did not alter fluid accumulation
  localization of NHE3 in CTx-treated jejunum: NHE3 was internalized

## CP-2: control peptide, N3SP-1 lacking first ten N-terminal amino acids (rabbit NHE3 residues 578-605) (TVEASVSYLLRESASAVCLDMQSLEQRR; UniProt P26432 578-605, looked up, fragment)
Mouse ileal loops [9]
  effect on CTx-induced fluid in ileal loops (loop weight/length): did not reduce the residual loop volume
Mouse ileal loops [1]; nanoparticle conjugated peptide 400 nM, Tenapanor (10 μM) in both incubation periods
  residual fluid in presence of Tenapanor, CP2 vs N3SP-1Δ7: no difference in residual fluid
[10]
  surface zeta potential (electrophoretic light scattering): 24.6±0.5 mV
[10]; aqueous
  nanoparticle diameter (DLS): 319±55 nm
Adenylate cyclase-cAMP
  FSK-increased intracellular cAMP: similar
NHE3 [11]
  NHE3 activity after FSK, % of same peptide without FSK: 77.2%
Mouse jejunum [8]
  effect on CTx-stimulated net fluid secretion (loop weight/cm): Results similar to those with N3SP-1 and CP-1

## N3SP-1 N-terminal truncation of 5 aa: TPRPSTVEASVSYLLRESASAVCLDMQSLEQRR [Peptide N3SP-1Δ5]
NHE3 [12]
  Stimulation of NHE3 Activity: YES (39%)
  pEC50: 6.81

## N3SP-1 N-terminal truncation of 6 aa: PRPSTVEASVSYLLRESASAVCLDMQSLEQRR [Peptide N3SP-1Δ6]
NHE3 [12]
  Stimulation of NHE3 Activity: YES (40%)
  pEC50: 6.82

## N3SP: general name of the NHE3 stimulatory peptide (N3SP-1 and active truncations) (RPSTVEASVSYLLRESASAVCLDMQSLEQRR) [Peptide N3SP]
NHE3 [13]
  pEC50: ~6.82

## NHE3 mimetic peptide, rabbit NHE3 aa 568-605: NVDFSTPRPSTVEASVSYLLRESASAVCLDMQSLEQRR [Peptide N3SP-1]
Mouse jejunum [2]; 400 nM, n=5, p=0.0004
  difference in net water transport between N3SP-1 and CP-1 perfused jejunal loops: 56.6 ± 15.1 µL/min/cm
NHE3 [3]; BODIPY-conjugated peptide 400 nM, Caco-2/BBe/HA3-NHE3 cells
  stimulation of basal NHE3 activity compared to CP-1: 41%
NHE3 [3]; BODIPY-conjugated peptide added apically, Caco-2/BBe cells, read-out: EC50 of prevention of FSK inhibition of NHE3
  pEC50: 6.80
NHE3 [3]; BODIPY-conjugated peptide pretreatment, FSK (10 μM), Caco-2/BBe cells
  effect on inhibition of NHE3 by FSK: prevented inhibition
NHE3 [3]; BODIPY-conjugated peptide pretreatment, carbachol (10 μM), Caco-2/BBe cells
  effect on inhibition of NHE3 by carbachol: prevented inhibition
NHE3 [3]; BODIPY-conjugated peptide, Caco-2/BBe/HA3-NHE3 cells
  concentration of maximal effect on basal NHE3 activity: 400 nM
NHE3 [3]; BODIPY-conjugated peptide, Caco-2/BBe/HA3-NHE3 cells, read-out: EC50 of stimulation of basal NHE3 activity
  pEC50: 6.82
NHE3 [3]; EGF (200 ng/mL), BODIPY-conjugated peptide 400 nM, Caco-2/BBe cells
  EGF stimulation of NHE3 activity in presence of peptide: 35%
NHE3 [14]; BODIPY-conjugated peptide 400 nM
  stimulation of basal NHE3 activity compared to CP-1: 57%
NHE3 [14]; BODIPY-conjugated peptide pretreatment, FSK (10 μM)
  effect on inhibition of NHE3 by FSK: prevented inhibition
[4]
  Isc in CTx treated loops compared to CTx in PBS: slightly, but not significantly, greater; also recorded: not altered
  peak increases in Isc with sequential addition of FSK and carbachol: not different
Mouse jejunum [5]; 400 nM peptide in loop, 200-μg anti-CD3 antibody IP, 2.5 h
  effect on anti-CD3 antibody-induced luminal fluid accumulation: prevents fluid secretion
NHE3 [6]; BODIPY-conjugated peptide 400 nM, PS120/HA3-NHE3/NHERF2 cells
  stimulation of basal NHE3 activity compared to CP-1: 61%
NHE3 [6]; BODIPY-conjugated peptide pretreatment, 0.5-μM A23187, PS120 fibroblasts
  effect on inhibition of NHE3 by 4-Br-A23187: prevented inhibition
NHE3 [6]; unconjugated peptide 400 nM, PS120 cells
  effect on basal NHE3 activity in the absence of BODIPY conjugation: No stimulatory effect; also recorded: Neither CP-1 nor N3SP-1 altered basal NHE3 activity
Mouse jejunum [7]
  effect on STa-induced intestinal fluid accumulation: significantly reduced
NHE3 [12]
  Stimulation of NHE3 Activity: YES (38%)
  pEC50: 6.82
Mouse jejunum [8]
  effect on CTx-stimulated net fluid secretion (loop weight/cm): prevented CTx-stimulated fluid secretion
  localization of NHE3 in CTx-treated jejunum: NHE3 was detected on the CTx-treated jejunal BB
